Reference: US7960131B2, “Functional genomic pore assay for mixed cell populations” (Wisconsin Alumni Research Foundation, priority 2003, dated 2011)

Key:
P2X7 receptor = test: Bead-standardized whole blood/PBMC monocyte P2X7 pore assay with PI exclusion of nonviable cells; format: cell-based, human; conditions: for BzATP Stimulated YO-PRO-1 measurement, Mean: viable monocytes
Procedure: PBMC Isolation. Six mLs of citrate-treated blood was underlayed with three mLs of Lymphoprep (Axis-Sheild, Oslo, Norway) and centrifuged at 800 g for 30 minutes at room temperature. The cellular interface was collected and washed twice with sterile phosphate-buffered saline (PBS). Cells were counted and assayed for pore activity as described below.
Sample Preparation. Although all leukocytes studied to date express P2X7, monocytes were selected as the cell population to screen because of the greater sensitivity of pore function noted between individuals participating in a small study with forty-five healthy subjects (5, 34). Staining procedures were as previously described (10, 14, 34). Briefly, aliquots of citrated whole blood ([…]) were washed twice in HEPES-buffered saline (HBS; 130 mM NaCl, 5 mM KCl, 20 mM HEPES pH 7.4, 0.1% bovine serum albumin, 10 mM glucose; components purchased at Sigma, St. Louis, Mo.) and resuspended in the original 500 L volume. A 10 μL aliquot of anti-human CD14 antibody conjugated to phycoerythrin (CD14-PE, 50 μg/mL; BD Biosciences, San Diego, Calif.) was added to each sample and incubated at room temperature for 20 min. The cells were washed twice in a potassium glutamate buffer (130 mM potassium glutamate, 5 mM KCl, 20 mM HEPES pH 7.4, 0.1% bovine serum albumin, 10 mM glucose; components from Sigma) to maximize the differences between high and low pore activities (17).
Samples were adjusted to 10 mM magnesium chloride, washed in HEPES-buffered saline and diluted to a volume of 2.5 mL in HBS. These latter steps have been previously shown to close the pore rapidly allowing for kinetic precision in a large clinical study (10, 34). For the methods described here, including all the samples from the MIA trial (Table 3), propidium iodide (PI; 5 μg/mL) was added to each sample and incubated for 15 min prior to sample acquisition using flow cytometry as described below.
Determination of Instrument Settings and Calculation of Spectral Overlap. All instruments in the facility are cleaned daily and assessed for laser alignment, photomultiplier tube (PMT) performance, linearity and noise. All fluorochromes were excited with a 488 nm laser and the following filter sets were used in all flow cytometers: a BP 530/30 for YO-PRO-1, a BP 585/42 for PE and a LP 670 for propidium iodide. Experiments were performed on FACScan, FACSCalibur, and LSR II flow cytometers (Becton Dickinson, San Jose, Calif.) in conjunction with the CellQuest, CellQuestPro, FACSDiva acquisition and analysis software programs (v. 3.3, v. 4.0, and v. 5.0.1, respectively; Becton Dickinson).
Previously, pore activity was measured on a FACScan flow cytometer (Becton Dickinson, San Jose, Calif.) using recalled instrument settings: YO-PRO-1 at 410 mV, PE at 412 mV, acquisition threshold for PE at 324 mV, and PE-32.6% YO-PRO-1 compensation (10). To facilitate comparisons across instrument platforms and among laboratories, we used these recalled settings as a template to adapt desired PMT voltages for SpheroTM Rainbow fluorescent particles (mid-range 3.0-3.4 μm; Sperotech, Lake Forest Ill.), corresponding data shown in FIG. 15. Rainbow particles have a very stable fluorescence and can be stored and used over a long period of time, allowing the intensities of these particles in each fluorescent detector to serve as target values for determining the voltages applied to each PMT for all of the cytometers used.
The same target values were used for the analog instruments, FACScan and FACSCalibur (BD Biosciences, San Jose, Calif.) because these instruments process fluorescence signals in the same way and the intensities determined were very close (data not shown). The LSR II (BD Biosciences, San Jose, Calif.) uses digital processing and fluorescence is collected and sampled differently so a second set of target values using these same samples was determined for each color detector on this cytometer. […]

P2X7-Q460R = target: T1, P2X7-Q460R (Homo sapiens, UniProt Q99572, Q460R); test: YO-PRO-1 uptake fluorimetric plate assay in transfected HEK 293 cells, P2X7-Q460R; format: cell-based
T1 construct: expressed in transfected cells
T1 sequence (Q99572 1-595 Q460R): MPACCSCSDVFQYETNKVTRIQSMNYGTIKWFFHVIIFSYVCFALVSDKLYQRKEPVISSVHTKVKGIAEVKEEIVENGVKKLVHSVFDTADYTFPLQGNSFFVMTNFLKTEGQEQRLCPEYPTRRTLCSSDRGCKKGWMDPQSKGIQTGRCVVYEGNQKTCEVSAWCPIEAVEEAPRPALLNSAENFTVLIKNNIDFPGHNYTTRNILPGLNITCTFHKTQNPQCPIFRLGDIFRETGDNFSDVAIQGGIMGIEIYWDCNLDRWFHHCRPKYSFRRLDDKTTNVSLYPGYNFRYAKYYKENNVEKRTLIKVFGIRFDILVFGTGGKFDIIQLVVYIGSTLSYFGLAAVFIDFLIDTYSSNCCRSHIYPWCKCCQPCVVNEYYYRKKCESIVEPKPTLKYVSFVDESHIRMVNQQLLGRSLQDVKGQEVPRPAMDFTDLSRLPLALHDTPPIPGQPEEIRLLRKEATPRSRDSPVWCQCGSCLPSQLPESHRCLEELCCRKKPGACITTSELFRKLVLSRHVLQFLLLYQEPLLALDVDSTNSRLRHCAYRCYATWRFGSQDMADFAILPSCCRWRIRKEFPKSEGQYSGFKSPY
From the text: Recombinant Expression and Functional Characterization of Variant P2RX7 Alleles. A pcDNA3 expression vector containing a cloned human P2RX7 cDNA associated with normal pore activity was subjected to point mutagenesis using the Quick Change Kit (Stratagene Inc., city, state) to create the variants P2X7-G150R, P2X7-Q460R, and P2X7-E496A. HEK 293 cells were transfected by the Superfect liposomal method and stable populations were selected by G418 resistance. Expression of P2X7 mRNA and protein in unstimulated transfected HEK cell cultures was verified by RT-PCR and immunoblotting as previously described.
YO-PRO-1 fluorescence was measured by a Synergy-HT fluorescent plate reader (Biotek, city, state) using X±Y nm excitation and A±B emission filters.

## 2′-3′-O-(4-benzoylbenzoyl)-adenosine 5′-triphosphate [Bz-ATP]
P2X7 receptor; Ficoll prep PBMC, A, Bead-Adjusted compensation
  BzATP Stimulated median YO-PRO-1 fluorescence: 292
P2X7 receptor; Low Responder donor, Bead Adjusted PMT method
  BzATP Stimulated YO-PRO-1 measurement, Mean: 30.1
P2X7 receptor; Low Responder donor, Recalled PMT method
  BzATP Stimulated YO-PRO-1 measurement, Mean: 30.0
P2X7 receptor; Normal Responder donor, Bead Adjusted PMT method
  BzATP Stimulated YO-PRO-1 measurement, Mean: 1019.0
P2X7 receptor; Normal Responder donor, Recalled PMT method
  BzATP Stimulated YO-PRO-1 measurement, Mean: 983.0
P2X7 receptor; Whole blood, A, Bead-Adjusted compensation
  BzATP Stimulated median YO-PRO-1 fluorescence: 276
P2X7 receptor; Whole blood, B, Uncompensated
  BzATP Stimulated median YO-PRO-1 fluorescence: 30.7
P2X7 receptor; Whole blood, B, YO-PRO-PE Set at 2%
  BzATP Stimulated median YO-PRO-1 fluorescence: 27.4
P2X7 receptor; Whole blood, C, Uncompensated
  BzATP Stimulated median YO-PRO-1 fluorescence: 1071
P2X7 receptor; Whole blood, C, YO-PRO-PE Set at 2%
  BzATP Stimulated median YO-PRO-1 fluorescence: 1067
P2X7-Q460R
  EC50: ~30 µM
  increase in YO-PRO-1 fluorescence over baseline: 8 fold
